Results published in patent publication US9765105B2, “Macrolide compound” (Pulike Biological Engineering, Inc., priority 2013, dated 2017).

What was measured:
Experiment in all cases: in vitro susceptibility, MIC by mini broth dilution
Format in all cases: cell-based
[1] = system: Staphylococcus aureus CVCC26003; conditions: strain CVCC26003
Description: (§1) in vitro tests of susceptibility of the compounds according to the present disclosure against bacterial strains commonly used in laboratories. In accordance with the Performance Standards for Antimicrobial Disk Susceptibility Tests: Approved Standard published by the US National Committee for Clinical Laboratory Standards, the antibacterial activities of compounds prepared according to examples 5 to 187 were tested. The MICs (minimum inhibitory concentration) of the medicaments prepared according to the examples on the following bacterial strains were measured through mini broth dilution technique. Staphylococcus aureus CVCC26003, Streptococcus equines CVCC556. Actinobacillus pleuropneumoniae CVCC262, Haemophilus parasuis, and Pasteurella multocida CVCC399, which were purchased from the Control Institute of Veterinary Bioproducts and Pharmaceuticals, China. 4.1.1 Culture Medium for Staphylococcus aureus CVCC26003 Liquid culture medium: CAMHB. […] Solid culture medium: NINA prepared according to the specification of the final product. The strains were taken out of a refrigerator at −20° C. to be revived, and were spreaded by streaking on the solid culture medium with an inoculating loop. The inoculated culture medium was cultured at 35° C. in a constant temperature incubator for 20 h. […] were selected from a well-grown culture plate and streaked on the solid culture medium. The inoculated culture medium was cultured at 35° C. in the constant temperature incubator for 20 h. […] A 96-well plate was used, and 100 μl of DMSO was added into each of wells 2 to 11, and 200 μl of ready-prepared medicament solution was added into the 1st well, 100 μl of the medicament solution was extracted from the 1st well and added into the 2nd well. Double dilution was performed until the 11th well, thereby forming 11 gradients. In this case, compound of parent plate was prepared. 3 μl of double diluted medicament solution was extracted with a 12-channel pipettor and added into wells 1-11 of a new disposable 96-well culture plate. The 12th well thereof is a control well. For each medicament, there are two adjacent rows which are parallel. The transferred compound plate was reserved for later use. […] The dilution ratio was recorded, and the bacterial liquid for the tests was diluted according to the recorded dilution ratio. Subsequently, the bacterial suspension and the liquid culture medium were diluted in the proportion of 1:200. The diluted solution was reserved for later use.

[2] = system: Pasteurella multocida CVCC399; conditions: strain CVCC399
Description: as §1, with “China. 4.1.2” for “China. 4.1.1”, “Culture Media” for “Culture Medium”, “for the Rest Four Bacterial Strains.” for “for Staphylococcus aureus CVCC26003”, “medium:” for “medium: CAMHB.”, “medium: […]” for “medium: NINA prepared according to the specification of the final product.”

[3] = system: Streptococcus equines CVCC556; conditions: strain CVCC556
Description: as §1, with “China. 4.1.2” for “China. 4.1.1”, “Culture Media” for “Culture Medium”, “for the Rest Four Bacterial Strains.” for “for Staphylococcus aureus CVCC26003”, “medium:” for “medium: CAMHB.”, “medium: […]” for “medium: NINA prepared according to the specification of the final product.”

[4] = system: Actinobacillus pleuropneumoniae CVCC262; conditions: strain CVCC262
Description: as §1, with “China. 4.1.2” for “China. 4.1.1”, “Culture Media” for “Culture Medium”, “for the Rest Four Bacterial Strains.” for “for Staphylococcus aureus CVCC26003”, “medium:” for “medium: CAMHB.”, “medium: […]” for “medium: NINA prepared according to the specification of the final product.”

Haemophilus parasuis = system: Haemophilus parasuis
Description: as §1, with “China. 4.1.2” for “China. 4.1.1”, “Culture Media” for “Culture Medium”, “for the Rest Four Bacterial Strains.” for “for Staphylococcus aureus CVCC26003”, “medium:” for “medium: CAMHB.”, “medium: […]” for “medium: NINA prepared according to the specification of the final product.”

| Compound | MIC values, Staphylococcus aureus CVCC26003 [1] | MIC values, Pasteurella multocida CVCC399 [2] | MIC values, Streptococcus equines CVCC556 [3] | MIC values, Actinobacillus pleuropneumoniae CVCC262 [4] [ug/mi] | MIC values, Haemophilus parasuis (Haemophilus parasuis) |
| --- | --- | --- | --- | --- | --- |
| CC[C@H]1OC(=O)[C@H](C)[C@@H](O[C@H]2C[C@@](C)(OC)[C@](O)(CNCc3cccnc3)[C@H](C)O2)[C@H](C)[C@@H](O[C@@H]2O[C@H](C)C[C@H](N(C)C)[C@H]2O)[C@](C)(O)C[C@@H](C)NC[C@H](C)[C@@H](O)[C@]1(C)O [syzx-21, (2R,3S,4R,5S,8R,10R,11R,12S,13S,14R)-13-[(2,6-dideoxy-3-C-methyl-3-O-methyl-4-C-[(3-pyridinylmethylamino)methyl]-α-L-ribopyranosyl)oxy]-2-ethyl-3,4,10-trihydroxy-3,5,8,10,12,14-hexamethyl-11-[[3,4,6-trideoxy-3-(dimethylamino)-β-D-xylo-hexopyranosy]oxy]-1-oxa-7-azacyclopentadecan-15-one] | 0.5 ug/mi | ≦0.25 ug/mi | ≦0.25 ug/mi | 32 | ≦0.25 ug/mi |
| CCOCCCNCC1(O)C(C)OC(OC2C(C)C(=O)OC(CC)C(C)(O)C(O)C(C)CNC(C)CC(C)(O)C(OC3OC(C)CC(N(C)C)C3O)C2C)CC1(C)OC [syzx-22, (2R,3S,4R,5S,8R,10R,11R,12S,13S,14R)-13-[(2,6-dideoxy-3-C-methyl-3-O-methyl-4-C-[(3-ethoxypropyl)amino)methyl]-α-L-ribopyranosyl)oxy]-2-ethyl-3,4,10-trihydroxy-3,5,8,10,12,14-hexamethyl-11-[[3,4,6-trideoxy-3-(dimethylamino)-β-D-xylo-hexopyranosy]oxy]-1-oxa-7-azacyclopentadecan-15-one] | 1 ug/mi | 0.5 ug/mi | 0.5 ug/mi | 8 | ≦0.25 ug/mi |
| CC[C@H]1OC(=O)[C@H](C)[C@@H](O[C@H]2C[C@@](C)(OC)[C@](O)(CNCc3ccccc3OC)[C@H](C)O2)[C@H](C)[C@@H](O[C@@H]2O[C@H](C)C[C@H](N(C)C)[C@H]2O)[C@](C)(O)C[C@@H](C)NC[C@H](C)[C@@H](O)[C@]1(C)O [syzx-27] | 0.5 ug/mi | 0.5 ug/mi | ≦0.25 ug/mi | 4 | ≦0.25 ug/mi |
| CC[C@H]1OC(=O)[C@H](C)[C@@H](O[C@H]2C[C@@](C)(OC)[C@](O)(CNCCNC)[C@H](C)O2)[C@H](C)[C@@H](O[C@@H]2O[C@H](C)C[C@H](N(C)C)[C@H]2O)[C@](C)(O)C[C@@H](C)NC[C@H](C)[C@@H](O)[C@]1(C)O [syzx-29] | 1 ug/mi | 2 ug/mi | 0.5 ug/mi | 16 | 0.5 ug/mi |
| CC[C@H]1OC(=O)[C@H](C)[C@@H](O[C@H]2C[C@@](C)(OC)[C@](O)(CNCc3ccc(F)cc3F)[C@H](C)O2)[C@H](C)[C@@H](O[C@@H]2O[C@H](C)C[C@H](N(C)C)[C@H]2O)[C@](C)(O)C[C@@H](C)NC[C@H](C)[C@@H](O)[C@]1(C)O [syzx-31] | ≦0.25 ug/mi | ≦0.25 ug/mi | ≦0.25 ug/mi | 1 | ≦0.25 ug/mi |
| CC[C@H]1OC(=O)[C@H](C)[C@@H](O[C@H]2C[C@@](C)(OC)[C@](O)(CNc3ccc(Cl)nn3)[C@H](C)O2)[C@H](C)[C@@H](O[C@@H]2O[C@H](C)C[C@H](N(C)C)[C@H]2O)[C@](C)(O)C[C@@H](C)NC[C@H](C)[C@@H](O)[C@]1(C)O [syzx-32, (2R,3S,4R,5S,8R,10R,11R,12S,13S,14R)-13-[(2,6-dideoxy-3-C-methyl-3-O-methyl-4-C-[(6-chloro-pyridazin-3-yl-amino)-methyl]-α-L-ribopyranosyl)oxy]-2-ethyl-3,4,10-trihydroxy-3,5,8,10,12,14-hexamethyl-11-[[3,4,6-trideoxy-3-(dimethylamino)-β-D-xylo-hexopyranosy]oxy]-1-oxa-7-azacyclopentadecan-15-one] | 0.5 ug/mi | 1 ug/mi | 0.25 ug/mi | 0.5 | 0.25 ug/mi |
| CC[C@H]1OC(=O)[C@H](C)[C@@H](O[C@H]2C[C@@](C)(OC)[C@](O)(CNC(C)CCc3ccccc3)[C@H](C)O2)[C@H](C)[C@@H](O[C@@H]2O[C@H](C)C[C@H](N(C)C)[C@H]2O)[C@](C)(O)C[C@@H](C)NC[C@H](C)[C@@H](O)[C@]1(C)O (stereo partly drawn) [syzx-34, (2R,3S,4R,5S,8R,10R,11R,12S,13S,14R)-13-[(2,6-dideoxy-3-C-methyl-3-O-methyl-4-C-[[(1-methyl-3-phenyl)propyl-amino]-methyl]-α-L-ribopyranosyl)oxy]-2-ethyl-3,4,10-trihydroxy-3,5,8,10,12,14-hexamethyl-11-[[3,4,6-trideoxy-3-(dimethylamino)-β-D-xylo-hexopyranosy]oxy]-1-oxa-7-azacyclopentadecan-15-one] | 8 ug/mi | 16 ug/mi | 0.5 ug/mi | 8 | 4 ug/mi |
| CC[C@H]1OC(=O)[C@H](C)[C@@H](O[C@H]2C[C@@](C)(OC)[C@](O)(CNC(=O)C(F)(F)F)[C@H](C)O2)[C@H](C)[C@@H](O[C@@H]2O[C@H](C)C[C@H](N(C)C)[C@H]2O)[C@](C)(O)C[C@@H](C)NC[C@H](C)[C@@H](O)[C@]1(C)O [syzx-37, (2R,3S,4R,5S,8R,10R,11R,12S,13S,14R)-13-[(2,6-dideoxy-3-C-methyl-3-O-methyl-4-C-[[2,2,2-trifluoroacetyl-amino]-methyl]-α-L-ribopyranosyl)oxy]-2-ethyl-3,4,10-trihydroxy-3,5,8,10,12,14-hexamethyl-11-[[3,4,6-trideoxy-3-(dimethylamino)-β-D-xylo-hexopyranosy]oxy]-1-oxa-7-azacyclopentadecan-15-one] | 0.5 ug/mi | 1 ug/mi | ≦0.25 ug/mi | 32 | 0.5 ug/mi |
| CC[C@H]1OC(=O)[C@H](C)[C@@H](O[C@H]2C[C@@](C)(OC)[C@](O)(CNc3ccnc(Cl)c3)[C@H](C)O2)[C@H](C)[C@@H](O[C@@H]2O[C@H](C)C[C@H](N(C)C)[C@H]2O)[C@](C)(O)C[C@@H](C)NC[C@H](C)[C@@H](O)[C@]1(C)O [syzx-38] | 1 ug/mi | 0.5 ug/mi | 0.5 ug/mi | 32 | 0.5 ug/mi |
